Source: PMC8231256, “Influence of N-Methylation and Conformation on Almiramide Anti-Leishmanial Activity” (Molecules, 2021)
Where “and” joins values, the source holds several entries; their conditions need not be identical. Identical values can stand only once. Like-named read-outs stand apart in the source and are kept apart here. Where a SMILES comes first, the peptide text is derived from it. [ ]: non-standard residue; d: D form. The star is where a group is joined. NMeF = CN[C@@H](Cc1ccccc1)C(=O)O; NMeV = CN[C@H](C(=O)O)C(C)C; Hept6ynoyl = C#CCCCCC(=O)*; NMeA = CN[C@@H](C)C(=O)O; NH(CH2)6NH2 = NCCCCCCN*

Assays:
[1] = LM-1 macrophage cytotoxicity (Alamar Blue); assay type: cell-based, murine; settings: mouse
Method: The host cytotoxicity was evaluated by monitoring the survival rates of murine LM-1 macrophage at different concentrations of peptides 15–37 ([…]) over 24 h. […] Exceptionally, MeAla peptide amide 21 was 3.2- to 8-fold less toxic than the other peptide analogs.
The LM1- macrophages were grown in DMEM supplemented with 10% heat inactivated FBS. Cells at the concentration of 100,000 cells/mL were cultivated for 24 h in a 96-well plate (37 °C, 5% CO2). The culture medium was removed and fresh medium containing the appropriate drug and concentration was added to the cells, which were incubated for 24 h (37 °C, 5% CO2). Seven different concentrations were tested ([…]) as well as controls (without drugs). After 24 h, the culture medium was removed and replaced for fresh medium containing 10% Alamar Blue (Thermo Fisher Scientific, Waltham, MA, USA) and incubated for 2 h (37 °C, 5% CO2). Readings at 570 and 600 nm (Asys UVM340 Plate reader, Biochrom, Cambridge, UK) were taken and analyzed according to the manufacturer protocol. Survival rates at different drug concentrations and CC50 values were calculated using the Excel software.

[2] = tested on: L. infantum Sb2000.1 (resistant to antimony) promastigotes; assay type: cell-based, Leishmania infantum; settings: strain resistant to 2 mM antimonials, 72 h, 25 °C, 95% CI in brackets (n = 3), read-out: Ldi Sb-Res EC50
Method: (§1) The biological activity of peptides 15–37 was assessed against the L. infantum wild-type stain (WT), as well as mutants resistant to the common anti-leishmanial agents, such as antimony (Sb^III), amphotericin B (AmB) and miltefosine (MF): Sb2000.1, AmB1000.1 and MF200.5. Activity against Leishmania promastigotes was determined by monitoring the replication of parasites after 72 h of incubation at 25 °C in the presence of increasing concentrations of the different peptides […] and reported as EC50 values (Table 2). […] The greatest potencies were observed using analogs against the amphotericin B resistant strain (e.g., AmB1000.1).
(§2) The L. infantum (MHOM/MA/67/ITMAP-263) wild-type stain (WT), as well as the resistant mutants Sb2000.1, AmB1000.1 and MF200.5 [53, 54, 55, 56, 57, 58], resistant to antimony (Sb^III), amphotericin B (AmB) and miltefosine (MF), respectively, were grown in M199 medium at 25 °C supplemented with 10% fetal bovine serum, 5 μg/mL of haemin at pH 7.0 and 2000 μM Sb (Potassium antimonyl tartrate, Sigma-Aldrich), 200 μM of MF (Miltefosine, Cayman Chem., Ann Arbor, MI, USA) or 1 μM AmB (Amphotericin B solution, Sigma, Oakville, ON, Canada). Antileishmanial values were determined in Leishmania promastigotes by monitoring the replication of parasites after 72 h of incubation at 25 °C in the presence of increasing concentrations of the different peptides by measuring A600 using a Cytation 5 machine (BioTek, Winooski, VT, USA). EC50 values were calculated based on dose–response curves analyzed by non-linear regression with GraphPad Prism 8.4.3 software (GraphPad Software, La Jolla, CA, USA). An average of at least three independent biological replicates from independent cultures was performed for each determination.

[3] = tested on: L. infantum MF200.5 (resistant to miltefosine) promastigotes; assay type: cell-based, Leishmania infantum; settings: strain resistant to 200 µM miltefosine; promastigotes, 72 h, 25 °C; 95% CI in brackets (n = 3); read-out: Ldi MF-Res EC50
Method: as §1, §2

[4] = tested on: L. infantum AmB1000.1 (resistant to amphotericin B) promastigotes; assay type: cell-based, Leishmania infantum; settings: for EC50: strain resistant to 1 µM amphotericin B, promastigotes, 72 h, 25 °C, 95% CI in brackets (n = 3), read-out: Ldi AmB-Res EC50
Method: as §1, §2

[5] = tested on: L. infantum (MHOM/MA/67/ITMAP-263) wild-type strain (WT) promastigotes; assay type: cell-based, Leishmania infantum; settings: for EC50: 72 h; for Selectivity Index: SI = CC50 (LM-1 macrophage)/EC50 Ldi WT
Method: as §1, §2

[6] = MHOM/MA/67/ITMAP-263) wild-type strain (WT) promastigotes
[7] = LM-1 macrophages, 24 h, Alamar Blue, read-out: CC50
[8] = promastigotes, 25 °C, 95% confidence interval in brackets (n = 3), read-out: Ldi WT EC50

Compound	CC50 at 24 h [1]	EC50 [2]	EC50 [3]	EC50 [4]	EC50 [5, 6]	Selectivity Index [5]	CC50 at 24 h [1, 7]	fold more active than nonmethylated counterpart ([4]; AmB1000.1, 17 vs 16, 35 vs 31)	EC50 [5, 8]	therapeutic index ([4]; macrophage toxicity compared with potency against the AmB resistant Leishmania strain)
C#CCCCCC(=O)N[C@H]1CCN([C@H](C(=O)N[C@H](C(=O)N[C@@H](C)C(=O)N[C@@H](Cc2ccccc2)C(=O)O)C(C)C)C(C)C)C1=O [peptide 23, HCC(CH2)4CO-Agl-Val-Val-Ala-Phe-OH]	363 µM	241 µM	232 µM	212 µM	225 µM	1.61	–	–	–	–
C#CCCCCC(=O)N[C@H](C(=O)N[C@H](C(=O)N[C@H](C(=O)N[C@@H](C)C(=O)N(C)[C@@H](Cc1ccccc1)C(=O)NCCCCCCN)C(C)C)C(C)C)C(C)C [peptide 22, HCC(CH2)4CO-Val-Val-Val-Ala-Phe(Me)-NH(CH2)6NH2] (Hept6ynoyl-VVVA[NMeF]-{NH(CH2)6NH2})	446 µM	25 µM	27.8 µM	25.9 µM	29 µM	15.3	–	–	–	–
C#CCCCCC(=O)N(C)[C@H]1CCN([C@H](C(=O)N(C)[C@H](C(=O)N(C)[C@@H](C)C(=O)N(C)[C@@H](Cc2ccccc2)C(=O)NCCCCCCN)C(C)C)C(C)C)C1=O [peptide 33, HCC(CH2)4CO-Agl(Me)-Val-Val(Me)-Ala(Me)-Phe(Me)-NH(CH2)6NH2]	407 µM	140 µM	191 µM	184 µM	119 µM	3.4	–	–	–	–
C#CCCCCC(=O)N(C)[C@H](C(=O)N(C)[C@H](C(=O)N(C)[C@H](C(=O)N(C)[C@@H](C)C(=O)N(C)[C@@H](Cc1ccccc1)C(=O)NCCCCCCN)C(C)C)C(C)C)C(C)C [peptide 17, HCC(CH2)4CO-Val(Me)-Val(Me)-Val(Me)-Ala(Me)-Phe(Me)-NH(CH2)6NH2] (Hept6ynoyl-[NMeV][NMeV][NMeV][NMeA][NMeF]-{NH(CH2)6NH2})	–	60.2 µM	25.5 µM	5.6 µM	–	6.9	338 µM	4 fold	48.4 µM	–
C#CCCCCC(=O)N[C@H](C(=O)N[C@H](C(=O)N[C@H]1CCN([C@@H](C)C(=O)N[C@@H](Cc2ccccc2)C(=O)O)C1=O)C(C)C)C(C)C [peptide 25, HCC(CH2)4CO-Val-Val-Agl-Ala-Phe-OH]	416 µM	> 300 µM	> 300 µM	> 300 µM	–	–	–	–	> 300 µM	–
C#CCCCCC(=O)N[C@H](C(=O)N[C@H]1CCN([C@H](C(=O)N[C@@H](C)C(=O)N[C@@H](Cc2ccccc2)C(=O)O)C(C)C)C1=O)C(C)C [peptide 24, HCC(CH2)4CO-Val-Agl-Val-Ala-Phe-OH]	398 µM	251 µM	238 µM	261 µM	248 µM	1.6	–	–	–	–
C#CCCCCC(=O)N[C@H](C(=O)N[C@H](C(=O)N[C@H](C(=O)N[C@@H](C)C(=O)N[C@@H](Cc1ccccc1)C(=O)NCCCCCCN)C(C)C)C(C)C)C(C)C [peptide 16, HCC(CH2)4CO-Val-Val-Val-Ala-Phe-NH(CH2)6NH2] (Hept6ynoyl-VVVAF-{NH(CH2)6NH2})	446 µM	30.3 µM	18.1 µM	20.8 µM	23.4 µM	19.2 and 19.0	–	–	–	–
C#CCCCCC(=O)N[C@H]1CCN([C@H](C(=O)N[C@H](C(=O)N[C@@H](C)C(=O)N[C@@H](Cc2ccccc2)C(=O)NCCCCCCN)C(C)C)C(C)C)C1=O [peptide 29, HCC(CH2)4CO-Agl-Val-Val-Ala-Phe-NH(CH2)6NH2]	416 µM	90.4 µM	67.9 µM	72 µM	75 µM	5.5	–	–	–	–
C#CCCCCC(=O)N(C)[C@H](C(=O)N(C)[C@H](C(=O)N(C)[C@H](C(=O)N(C)[C@@H](C)C(=O)N(C)[C@@H](Cc1ccccc1)C(=O)O)C(C)C)C(C)C)C(C)C [peptide 12, HCC(CH2)4CO-Val(Me)-Val(Me)-Val(Me)-Ala(Me)-Phe(Me)-OH] (Hept6ynoyl-[NMeV][NMeV][NMeV][NMeA][NMeF]-OH)	–	70.7 µM	75.6 µM	79.6 µM	–	4.1	281 µM	–	68.3 µM	–
C#CCCCCC(=O)N(C)[C@H](C(=O)N(C)[C@H](C(=O)N(C)[C@H]1CCN([C@@H](C)C(=O)N(C)[C@@H](Cc2ccccc2)C(=O)O)C1=O)C(C)C)C(C)C [peptide 28, HCC(CH2)4CO-Val(Me)-Val(Me)-Agl(Me)-Ala-Phe(Me)-OH]	245 µM	250 µM	282 µM	> 300 µM	255 µM	0.9	–	–	–	–
C#CCCCCC(=O)N(C)[C@H](C(=O)N(C)[C@H]1CCN([C@H](C(=O)N(C)[C@@H](C)C(=O)N(C)[C@@H](Cc2ccccc2)C(=O)NCCCCCCN)C(C)C)C1=O)C(C)C [peptide 34, HCC(CH2)4CO-Val(Me)-Agl(Me)-Val-Ala(Me)-Phe(Me)-NH(CH2)6NH2]	398 µM	–	23.1 µM	24.8 µM	33.2 µM	12.0	–	–	–	–
C#CCCCCC(=O)N[C@H](C(=O)N[C@H](C(=O)N(C)[C@H](C(=O)N[C@@H](C)C(=O)N[C@@H](Cc1ccccc1)C(=O)NCCCCCCN)C(C)C)C(C)C)C(C)C [peptide 20, HCC(CH2)4CO-Val-Val-Val(Me)-Ala-Phe-NH(CH2)6NH2] (Hept6ynoyl-VV[NMeV]AF-{NH(CH2)6NH2})	281 µM	40.2 µM	60.6 µM	57.2 µM	53.9 µM	5.2	–	–	–	–
C#CCCCCC(=O)N[C@H](C(=O)N[C@H](C(=O)N[C@H](C(=O)N[C@H]1CCN([C@@H](Cc2ccccc2)C(=O)NCCCCCCN)C1=O)C(C)C)C(C)C)C(C)C [peptide 32, HCC(CH2)4CO-Val-Val-Val-Agl-Phe-NH(CH2)6NH2]	389 µM	87.8 µM	84.2 µM	90.1 µM	91.2 µM	4.3	–	–	–	–
C#CCCCCC(=O)N(C)[C@H](C(=O)N[C@H](C(=O)N[C@H](C(=O)N[C@@H](C)C(=O)N[C@@H](Cc1ccccc1)C(=O)NCCCCCCN)C(C)C)C(C)C)C(C)C [peptide 18, HCC(CH2)4CO-Val(Me)-Val-Val-Ala-Phe-NH(CH2)6NH2] (Hept6ynoyl-[NMeV]VVAF-{NH(CH2)6NH2})	177 µM	39.6 µM	12.1 µM	5.03 µM	36.7 µM	4.8	–	–	–	36
C#CCCCCC(=O)N[C@H](C(=O)Nn1c(C)cn([C@H](C(=O)N[C@@H](C)C(=O)N[C@@H](Cc2ccccc2)C(=O)O)C(C)C)c1=O)C(C)C [peptide 37, HCC(CH2)4CO-Val-(5-Me)Nai-Val-Ala-Phe-OH]	407 µM	> 300 µM	> 300 µM	> 300 µM	–	–	–	–	> 300 µM	–
C#CCCCCC(=O)N(C)[C@H](C(=O)N(C)[C@H]1CCN([C@H](C(=O)N(C)[C@@H](C)C(=O)N(C)[C@@H](Cc2ccccc2)C(=O)O)C(C)C)C1=O)C(C)C [peptide 27, HCC(CH2)4CO-Val(Me)-Agl(Me)-Val-Ala(Me)-Phe(Me)-OH]	–	296 µM	> 300 µM	> 300 µM	–	1.0	295 µM	–	284 µM	–
